In one test the test system is CHL-1 cells. Put plainly: Cell proliferation assay (alamarBlue), CHL-1. The format is cell-based. To be noted: Homo sapiens; CHL-1 (melanoma, BRAF wild-type), 96 hours. Here is the method:
In accordance with the invention, the ability of the substances to inhibit cell proliferation was determined. Cell viability was determined by means of the alamarBlue® reagent (Invitrogen) in a Victor X3 Multilabel Reader (Perkin Elmer). The excitation wavelength was 530 nm and the emission wavelength […].
The CHL-1 cells (ATCC, CRL-9446) were sown at a concentration of 1000 cells/well in 100 μl of growth medium (DMEM with glutamine, 10% FCS) on 96-well microtitre plates.
After overnight incubation at 37° C., the fluorescence values were determined (CI values). Then the plates were treated with various substance dilutions (1E-5 M, 3E-6 M, 1E-6 M, 3E-7 M, 1E-7 M, 3E-8 M, 1E-8 M) and incubated at 37° C. over 96 hours (MOLM-13, B16F10, CHL-1 cells) or 120 hours (MOLP-8 cells). Subsequently, the fluorescence values were determined (CO values). For the data analysis, the CI values were subtracted from the CO values and the results were compared between cells which had been treated with various dilutions of the substance or only with buffer solution. The IC50 values (substance concentration needed for 50% inhibition of cell proliferation) were calculated therefrom.

For a further test, the system named is MOLM-13 cells. As to the kind of experiment: Cell proliferation assay (alamarBlue), MOLM-13. As to conditions: Homo sapiens; MOLM-13 (acute myeloid leukaemia), 96 hours. Format: cell-based. The essentials: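 Cells in RPMI1640 with 10% FCS, read by alamarBlue fluorescence (ex 530, em 590 nm) after overnight plating and again after 96 h compound exposure at 37° C (1E-5 to 1E-8 M). Baseline-subtracted signal compared with buffer-treated cells to derive IC50.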

The next test concerns B16F10 cells. As to the kind of experiment: Cell proliferation assay (alamarBlue), B16F10. To be noted: Mus musculus, B16-F10; B16F10 (melanoma, BRAF wild-type), 96 hours. Format: cell-based. The essentials:
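B16F10 cells in DMEM with 10% FCS were exposed to seven concentrations from 1E-5 to 1E-8 M for 96 hours at 37 °C. Viability was read with alamarBlue (ex 530/em 590 nm), and day-0 signal was subtracted. IC50 was derived relative to buffer-treated cells.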

In a further test the test system is MOLP-8 cells. As to the kind of experiment: Cell proliferation assay (alamarBlue), MOLP-8. Format: cell-based. To be noted: Homo sapiens; MOLP-8 (multiple myeloma), 120 hours. The method in brief: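 MOLP-8 cells plated at 4000 cells/well in RPMI1640 with 20% FCS, read after overnight culture, then treated with dilutions from 1E-5 to 1E-8 M for 120 hours at 37° C. Viability by alamarBlue fluorescence (ex 530/em 590 nm); initial reads subtracted, compared with buffer-treated cells, and IC50 calculated for 50% proliferation inhibition.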

Test [1] addresses T1, BRD4 bromo domain 1 [BRD4(1)] (Homo sapiens, UniProt O60885).
T1 construct: N-terminally His6-tagged BRD4(1) (amino acids 67-152); made in house; host or cells: E. coli
As to the kind of experiment: BRD4/acetylated peptide H4 binding assay (TR-FRET), BRD4 bromo domain 1. As to conditions: inhibition of BRD4(1)/Ac-H4 peptide interaction. The essentials: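 TR-FRET (665/620 nm ratio) measuring displacement of biotinylated tetra-acetylated H4 peptide from His6-BRD4(1) (aa 67-152, E. coli; typically 10 nM) at pH 7.5. Compound (11 concentrations, 0.1 nM–20 μM, duplicates) was preincubated 10 min at 22°C, then 1 h at 22°C and ≥3 h at 4°C; IC50 from 4-parameter fit normalized to DMSO and no-BRD4 controls.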
(In TR-FRET formats the signal depends on donor and acceptor labels being close together.)

For `C[C@@H]1C(=O)N(C)c2ccc(Nc3cccc(S(=O)(=O)N[C@H]4CC[C@H](N5CCN(CC6CC6)CC5)CC4)c3)nc2N1Cc1ccccc1` [Example 38, 3-{[(3R)-4-benzyl-1,3-dimethyl-2-oxo-1,2,3,4-tetrahydropyrido[2,3-b]pyrazin-6-yl]amino}-N-{trans-4-[4-(cyclopropyl-methyl)piperazin-1-yl]cyclohexyl}-benzenesulphonamide], the IC50 stood at 19 nM in the test with CHL-1 cells; 20 nM in the test on MOLM-13 cells; 190 nM in the test on B16F10 cells; 12 nM in the test on MOLP-8 cells; 19 nM in test [1].

For the molecule `CNS(=O)(=O)c1cccc(Nc2ccc3c(n2)N(C2CCOCC2)[C@H](C)C(=O)N3C)c1` [Example 39, 3-{[(3R)-1,3-dimethyl-2-oxo-4-(tetrahydro-2H-pyran-4-yl)-1,2,3,4-tetrahydropyrido[2,3-b]pyrazin-6-yl]amino}-N-methylbenzenesulphon-amide], the IC50 amounted to 63 nM in the test with CHL-1 cells; 90 nM in the test with MOLM-13 cells; 149 nM in the test with B16F10 cells; 91 nM with MOLP-8 cells; 38 nM in test [1].

In the case of `COc1ccc(S(=O)(=O)N2CCN(C)CC2)cc1Nc1ccc2c(n1)N(C1CCOCC1)[C@H](C)C(=O)N2C` [Example 40, (3R)-6-({2-methoxy-5-[(4-methylpiperazin-1-yl)sulphonyl]phenyl}-amino)-1,3-dimethyl-4-(tetrahydro-2H-pyran-4-yl)-3,4-dihydropyrido[2,3-b]pyrazin-2(1H)-one], the IC50 in the test with CHL-1 cells was 56 nM; with MOLM-13 cells, 98 nM; in the test with B16F10 cells, 314 nM; in the test on MOLP-8 cells, 73 nM; in test [1], 43 nM.

As for `C[C@@H]1C(=O)N(C)c2ccc(Nc3cccc(S(=O)(=O)N(C)C)c3)nc2N1C1CCN(C)CC1` [Example 41, 3-{[(3R)-1,3-dimethyl-4-(1-methylpiperidin-4-yl)-2-oxo-1,2,3,4-tetrahydropyrido[2,3-b]pyrazin-6-yl]amino}-N,N-dimethylbenzene-sulphonamide], the IC50 with CHL-1 cells worked out at 21 nM; in the test on MOLM-13 cells it was 22 nM; in the test on B16F10 cells, 52 nM; in the test on MOLP-8 cells, 17 nM; in test [1] it was 20 nM.

As to `C[C@@H]1C(=O)N(C)c2ccc(Nc3cccc(S(=O)(=O)NCC4CCN(C)CC4)c3)nc2N1C1CCOCC1` [Example 44, 3-{[(3R)-1,3-dimethyl-2-oxo-4-(tetrahydro-2H-pyran-4-yl)-1,2,3,4-tetrahydropyrido[2,3-b]pyrazin-6-yl]amino}-N-[(1-methylpiperidin-4-yl)methyl]benzene-sulphonamide], the IC50 in the test with CHL-1 cells turned out to be 362 nM; with MOLM-13 cells, 253 nM; with B16F10 cells, 944 nM; with MOLP-8 cells, 335 nM; in test [1], 50 nM.

With `CC(C)CN1c2nc(Nc3cccc(S(=O)(=O)N[C@H]4CC[C@H](N5CCN(CC6CC6)CC5)CC4)c3)ccc2N(C)C(=O)[C@H]1C` [Example 45, N-{trans-4-[4-(cyclopropylmethyl)-piperazin-1-yl]cyclohexyl}-3-{[(3R)-4-isobulyl-1,3-dimethyl-2-oxo-1,2,3,4-tetrahydropyrido[2,3-b]pyrazin-6-yl]amino}-benzenesulphonamide], the IC50 in the test with CHL-1 cells worked out at 81 nM; in the test on MOLM-13 cells, 126 nM; with B16F10 cells, 393 nM; with MOLP-8 cells it was 67 nM; in test [1], 51 nM.

With `COc1ccc(S(=O)(=O)N2CCN(C)CC2)cc1Nc1ccc2c(n1)N(C1CCN(C)CC1)[C@H](C)C(=O)N2C` [Example 46, (3R)-6-({2-methoxy-5-[(4-methylpiperazin-1-yl)sulphonyl]phenyl}-amino)-1,3-dimethyl-4-(1-methylpiperidin-4-yl)-3,4-dihydropyrido[2,3-b]pyrazin-2(1H)-one], the IC50 with CHL-1 cells is 64 nM; in the test with MOLM-13 cells, 45 nM; in the test with B16F10 cells it was 135 nM; in the test on MOLP-8 cells it was 33 nM; in test [1], 51 nM.

The term IC50 denotes the concentration that inhibits the measured activity by half. A low value points to inhibition by little substance.
